From US8784887B2, “Pharmaceutical preparation of N-[5-(aminosulfonyl)-4-methyl-1,3-thiazol-2-yl]-N-methyl-2-[4-(2-pyridinyl)phenyl]acetamide” (Aicuris GmbH & Co. KG, priority 2005, dated 2014)

Assay: release experiments with pure active compound (I) and with state-of-the-art preparations
Format: physicochemical
Conditions: release experiments using pure active compound (I)
Excerpt: If those preparations known from the state of the art are applied to the active compound (I) described here, it has unexpectedly been shown that there is no immediate release of the active compound but that there is a markedly delayed release which is therapeutically not desired.

## Cc1nc(N(C)C(=O)Cc2ccc(-c3ccccn3)cc2)sc1S(N)(=O)=O [active compound (I), N-[5-(Aminosulfonyl)-4-methyl-1,3-thiazol-2-yl]-N-methyl-2-[4-(2-pyridinyl)phenyl]acetamide]
  release behavior of pure active compound (in words): “clumping” or a gel formation
